# Assay results as given in patent publication US12486538B2, “Methods of diagnosing alzheimer's disease and risk of progression to alzheimer's disease” (Loma Linda University Health, priority 2016, dated 2025).
# “Also recorded” adds a separate entry of the source.
# Key:
# [1] = test system: neuron-differentiated SH-SY5Y cells; assay: LDH release assay in neuron-differentiated SH-SY5Y cells; format: cell-based, human; conditions: for LDH release, dose-response pattern: increasing concentrations
# Experimental: (§1) Rat cortical neurons were dissociated using a papain dissociation kit following manufacturer's instructions (Worthington, NJ; Cat #LK003150). Neurons were cultured in neurobasal medium with B27 supplement with 2 mM glutamine, 50 U/ml penicillin and 50 μg/mL. SH-SY5Y and B103 cells were cultured in DMEM (Sigma Cat #D6429-500M) supplemented with 5% fetal bovine serum. SH-SY5Y cells were differentiated with the addition of 10 μM retinoic acid for 7 days prior to experimentation. LDH assays were conducted with a LDH assay kit following manufacturer's instructions (cat #88954).
# B103-EV cells = assay: LDH release assay in B103 cells with empty vector (lack APP); format: cell-based, rat; conditions: absence of APP, 18 hours
# Experimental: as §1, with “experimentation. Transfections were conducted using Lippofectamine LTX (Thermofisher; cat #A12621) according to the manufacturer's instructions.” for “experimentation.”
# B103-APP695 cells [2] = assay: LDH release assay in B103 cells stably transfected with APP695; format: cell-based, rat
# Experimental: as §1, with “experimentation. Transfections were conducted using Lippofectamine LTX (Thermofisher; cat #A12621) according to the manufacturer's instructions.” for “experimentation.”
# B103-APP695 cells [3] = assay: LIVE/DEAD assay in B103-APP695 cells; format: cell-based, rat; conditions: 50 μM 27OHC, APP-expressing cells
# Experimental: Live dead cell assays were conducted with live dead cell assay kit according to the manufacturer's instructions (Thermofisher #L3224).
# [4] = test system: binding of AICD to the MAST4 promoter; assay: ChIP, AICD binding to MAST4 promoter, SH-SY5Y cells; format: cell-based, human; conditions: 5 μM 27OHC
# Experimental: (§2) Chromatin Immunoprecipitation (ChIP) assays were conducted according to standard protocols published by ABcam. Following treatments, cells were incubated with formaldehyde at a final concentration of 0.75% for 10 minutes followed by glycine at a final concentration of 125 mM for an additional 5 minutes. Cells were then washed two times with Phosphate Buffered Saline (PBS) and lysed in FA lysis buffer (50 mM HEPES-KOH PH 7.5, 140 mM NaCl, 1 mM EDTA, 1% Triton X-100, 0.1% Sodium Deoxycholate, 0.1% SDS, protease inhibitors). Resulting cell lysates were sonicated to fragment DNA, spun down, and incubated with antibody conjugated protein A sepharose beads (ThermoFisher cat #101041) overnight with gentile agitation. Following incubation, beads were pelleted, washed three times with FA lysis buffer, and DNA was eluted with elution buffer (1% SDS, 100 mM NaHCO3). Resulting DNA fragments were further purified with a DNA purification kit (Clontech cat #740609.250) prior to qPCR analysis. Antibodies used were anti-APP C-terminus (Sigma #A8717); anti-FOXO1 (Abcam #39670).
# [5] = test system: binding of AICD to the MAST4 promoter; assay: ChIP, AICD binding to MAST4 promoter, transfected B103 cells; format: cell-based, rat
# Experimental: as §2
# [6] = test system: binding of AICD to the MAST4 promoter; assay: ChIP, AICD binding to MAST4 promoter, rat cortical neurons; format: cell-based; conditions: 5 μM 27OHC
# Experimental: as §1, with “experimentation.” for “experimentation. LDH assays were conducted with a LDH assay kit following manufacturer's instructions (cat #88954).”
# as §2, with “Resulting DNA fragments were further purified with a DNA purification kit (Clontech cat #740609.250) prior to qPCR analysis. Antibodies used were anti-APP C-terminus (Sigma #A8717); anti-FOXO1 (Abcam #39670).” left out
# MAST4 mRNA [7] = assay: qPCR of MAST4 mRNA, SH-SY5Y cells; format: cell-based, human; conditions: 5 μM 27OHC
# Experimental: (§3) RNA was purified using TRIzol LS reagent according to the manufacturer's instructions (Thermofisher cat #10296010).
# (§4) mRNA was purified with TRIzol reagent, converted to cDNA with reverse transcriptase according to the manufacturer's instructions and quantified with iTaq Universal SYBR Green Supermix (Bio-Rad cat #1725120). Results were determined using the delta-delta cycle threshold (ct) method.
# MAST4 mRNA [8] = assay: qPCR of MAST4 mRNA, transfected B103 cells; format: cell-based, rat; conditions: B103 APP695, 5 μM 27OHC
# Experimental: as §3, §4
# MAST4 mRNA [9] = assay: qPCR of MAST4 mRNA, rat cortical neurons; format: cell-based; conditions: 5 μM 27OHC
# Experimental: as §3, §4
# MAST4 protein expression = assay: Immunoblot of MAST4 protein, SH-SY5Y cells; format: cell-based, human; conditions: 5 μM 27OHC
# Experimental: (§5) Immunoblotting was conducted as previously described with the following antibodies: APP (Sigma #A8717; Millipore #22C11); MAST4 (GeneTex #GTX87899); FOXO1 (Cell Signaling Technology #2880); RTKN2 (Proteintech #17458-1-AP); caspase-3 (Cell Signaling Technology #9662); caspase-7 (Cell Signaling Technology #9492); actin (Sigma #A5316) (7).
# [10] = test system: FOXO1 phosphorylation by MAST4 kinase; assay: MAST4 in vitro kinase assay on immunoprecipitates from treated cells; format: cell-based, human
# Experimental: Immunoprecipitations were conducted as outlined by ABcam under non-denaturing conditions.
# Kinase activity was measured at 37° C. for 30 minutes in 50 μl kinase buffer (50 mM Tris, pH 7.4, 10 mM MgCl2) supplemented with 50 μM ATP and human recombinant FOXO1 (1 μg; Origene #TP300477). Kinase reactions were run on 4-20% Tris-Glycine polyacrylamide gels (Thermofisher) and byproducts identified with anti phospho-Serine/Threonine antibody (Abcam ab17464).
# [11] = test system: binding of FOXO1 to the RTKN2 promoter; assay: ChIP, FOXO1 binding to RTKN2 promoter, SH-SY5Y cells; format: cell-based, human; conditions: 5 μM 27OHC
# Experimental: as §2
# [12] = test system: binding of FOXO1 to the RTKN2 promoter; assay: ChIP, FOXO1 binding to RTKN2 promoter, transfected B103 cells; format: cell-based, rat; conditions: B103 expressing APP695, 5 μM 27OHC
# Experimental: as §2
# [13] = test system: binding of FOXO1 to the RTKN2 promoter; assay: ChIP, FOXO1 binding to RTKN2 promoter, rat cortical neurons; format: cell-based
# Experimental: as §1, with “experimentation.” for “experimentation. LDH assays were conducted with a LDH assay kit following manufacturer's instructions (cat #88954).”
# as §2
# RTKN2 mRNA [14] = assay: qPCR of RTKN2 mRNA, SH-SY5Y cells; format: cell-based, human; conditions: control siRNA, 5 μM 27OHC
# Experimental: as §3, §4
# RTKN2 mRNA [15] = assay: qPCR of RTKN2 mRNA, transfected B103 cells; format: cell-based, rat; conditions: B103 with APP695, 5 μM 27OHC
# Experimental: as §3, §4
# RTKN2 mRNA [16] = assay: qPCR of RTKN2 mRNA, rat cortical neurons; format: cell-based
# Experimental: as §3, §4
# RTKN2 protein expression = assay: Immunoblot of RTKN2 protein, rat cortical neurons; format: cell-based; conditions: cytoprotective doses, 2.5 and 5 μM 27OHC
# Experimental: as §5
# [17] = test system: activated caspase-3, activated caspase-7 and Bax/Bcl2 ratio; assay: Immunoblot of active caspases 3 and 7, Bax, Bcl-2 and RTKN2 in treated cells; format: cell-based
# Experimental: as §5
smiles,measurement,setting,value
"CC(C)C(O)CC[C@@H](C)[C@H]1CC[C@H]2[C@@H]3CC=C4C[C@@H](O)CC[C@]4(C)[C@H]3CC[C@]12C (stereo partly drawn) [24OHC, 24-hydroxycholesterol]","LDH release, dose-response pattern",[1]; 18 hours,had no effect; also recorded: No LDH changes are measurable
"C[C@@H](CO)CCC[C@@H](C)[C@H]1CC[C@H]2[C@@H]3CC=C4C[C@@H](O)CC[C@]4(C)[C@H]3CC[C@]12C [27OHC, 27-hydroxycholesterol]",cytotoxicity (LDH),"[1]; 15, 25, and 50 μM treatments",increasing cytotoxicity
same,concentration of maximum protective effect (LDH),[1]; 18 hours,5 µM
same,LDH release compared to baseline (solvent alone),"[1]; concentrations below 10 μM, 18 hours",decreased LDH compared to baseline
same,cytotoxicity (LDH release),"[1]; higher concentrations (than 10 μM), 18 hours",dose-dependent cytotoxicity
same,"LDH release, dose-response pattern",[1]; 18 hours,biphasic dose-dependent cellular response
same,"LDH levels, dose-response",B103-EV cells,increased LDH levels in a dose-dependent manner; also recorded: Cytotoxicity is dose-dependent
same,LDH levels,B103-APP695 cells [2]; 5 μM 27OHC,reduced LDH levels
same,cytotoxicity (LDH),B103-APP695 cells [2]; doses greater than 10 μM,dose-dependently cytotoxic
same,"LDH levels, dose-response pattern","B103-APP695 cells [2]; presence of APP695, 18 hours",biphasic response comparable to that shown by SH-SY5Y cells; also recorded: biphasic pattern
same,dead/live cell abundance,B103-APP695 cells [3],protective
same,AICD binding to the MAST4 promoter,[4],AICD does bind to the MAST4 promoter
same,AICD binding to the MAST4 promoter,"[5]; B103 expressing APPG700A, 5 μM 27OHC",an effect not seen in cells expressing APPG700A
same,AICD binding to the MAST4 promoter,"[5]; B103 transfected with APP695, 5 μM 27OHC",increased AICD binding to the MAST4 promoter
same,AICD interaction with the MAST4 promoter,[6],AICD also interacts with the MAST4 promoter
same,MAST4 mRNA levels,MAST4 mRNA [7],elevated MAST4 mRNA levels
same,MAST4 mRNA levels,MAST4 mRNA [8],elevated MAST4 mRNA levels
same,MAST4 mRNA levels,MAST4 mRNA [9],also present in rat primary neurons
same,MAST4 protein expression,MAST4 protein expression,MAST4 protein expression increased
same,FOXO1 phosphorylation in MAST4 immunoprecipitates,[10]; cells treated with 5 μM 27OHC,Increased FOXO1 phosphorylation
same,FOXO1 phosphorylation in MAST4 immunoprecipitates,[10]; cells treated with 50 μM 27OHC,No increase in pSer-FOXO1
same,FOXO1 binding to the RTKN2 promoter,[11],decrease of that binding
same,FOXO1 binding to the RTKN2 promoter,[12],FOXO1 binding was also decreased
same,FOXO1 binding to the RTKN2 promoter: decreased at 5 μM but not 50 μM,"[13]; 5 and 50 μM 27OHC, FIG. 3F",confirmed in rat cortical neurons
same,FOXO1 binding to the RTKN2 promoter,"[13]; 15, 25, and 50 μM 27OHC",increasing
same,FOXO1 binding to the RTKN2 promoter,"[13]; cytoprotective doses, 2.5 and 5 μM 27OHC (b174 prints 5 M)",decreased binding of FOXO1 to the RTKN2 promoter
same,RTKN2 mRNA,RTKN2 mRNA [14],increased RTKN2 mRNA
same,RTKN2 mRNA,RTKN2 mRNA [15],RTKN2 was upregulated
same,RTKN2 mRNA: upregulated at 5 μM but not 50 μM,"RTKN2 mRNA [16]; 5 and 50 μM 27OHC, FIG. 3J",confirmed in rat cortical neurons
same,RTKN2 mRNA,"RTKN2 mRNA [16]; cytoprotective doses, 2.5 and 5 μM 27OHC",increased RTKN2 mRNA
same,RTKN2 protein expression,RTKN2 protein expression,increased
same,Bcl-2,[17]; 5 μM 27OHC,robust increase in Bcl-2
same,RTKN2 protein,[17]; 5 μM 27OHC,robust increase in Bcl-2 and RTKN2
same,active forms of caspases 3 and 7,[17]; 5 μM 27OHC,decrease in active forms of both caspases
same,Bcl-2,[17]; 50 μM 27OHC,decreased Bcl-2
same,active forms of caspases 3 and 7,[17]; 50 μM 27OHC,increased the active forms of both caspases
